Values quoted from earlier work as cited in patent US20240182984A1, “METHODS FOR ASSESSING PROLIFERATION AND ANTI-FOLATE THERAPEUTIC RESPONSE” (priority 2021, published 2024).

System: bronchioid subtype of LUAD
Details: compared with other LUAD subtypes

## Nc1nc2[nH]cc(CCc3ccc(C(=O)N[C@@H](CCC(=O)O)C(=O)O)cc3)c2c(=O)[nH]1 [pemetrexed]
  sensitivity of the bronchioid subtype of LUAD (Group 1): more sensitive
